Experimental findings from patent publication US20220306695A1, “COMPSTATIN ANALOGUES AND THEIR MEDICAL USES” (priority 2019, published 2022) are described below.

Starred links: 1 amine or outer side, 2 acyl side, 3 side chain; linkers in the order of their positions; H or OH if unused. Positions of bridges follow the written chain, without caps; N, C: chain ends. Non-standard residues stand in square brackets, D forms with d. Residues, ends and D or L forms follow the SMILES beside them. Groups on a side chain read outwards from the residue. *: point of attachment. Trp(1-Me) = Cn1cc(C[C@H](N)C(=O)O)c2ccccc21; Abu(4-yl) = O=C([C@H](CC[*:3])N[*:1])[*:2]; C18 diacid = O=C(O)CCCCCCCCCCCCCCCCC(=O)*; C16 diacid = O=C(O)CCCCCCCCCCCCCCC(=O)*; γGlu = O=C(O)[C@H](CCC(=O)[*:2])N[*:1]; AEEA = NCCOCCOCC(=O)O; Sar = CNCC(=O)O A value given as a limit tells only on which side of the number the result lay.

One assay deals with classical complement pathway. The assay is described as follows: In vitro haemolysis assay (inhibition of classical complement pathway). The class given is cell-based, human. The note with it: Table 3; human serum, sensitized sheep red blood cells; read-out: IC50[nM], in vitro analysis of inhibition of hemolysis. In outline: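 Serially diluted compound (9 points) was preincubated 15 min at room temperature with diluted human serum, titrated per batch to give 70-90% maximal haemolysis, in Tris/casein buffer pH 7.4 with Mg2+/Ca2+. Antibody-sensitized sheep erythrocytes were then added for 30 min at 37° C, and the reaction was stopped with EDTA. Haemolysis was read at A405, with IC50 from 4PL fit.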
As to `CC[C@H](C)[C@H](NC(C)=O)C(=O)N[C@H]1CSSC[C@@H](C(=O)N[C@H](C(N)=O)[C@@H](C)O)NC(=O)[C@H](CCCNC(=N)N)NC(=O)[C@H](Cc2c[nH]cn2)NC(=O)[C@H](CCC(=O)O)NC(=O)CNC(=O)[C@H](Cc2c[nH]c3ccccc23)NC(=O)[C@H](CCC(=O)O)NC(=O)[C@H](CCC(N)=O)NC(=O)[C@H](Cc2c[nH]c3ccccc23)NC(=O)[C@H]([C@@H](C)CC)NC1=O` [Compound 16] (Ac-ICIWQEWGEHRCT-NH2; disulfide 2-12), the IC50 is below 100 nM.

Turning to `CC[C@H](C)[C@@H]1NC(=O)[C@@H](NC(=O)[C@H](Cc2ccc(O)cc2)NC(C)=O)CSSC[C@@H](C(=O)N[C@H](C(N)=O)[C@@H](C)O)NC(=O)[C@H](CCCNC(=N)N)NC(=O)[C@H](Cc2c[nH]cn2)NC(=O)[C@H](CCC(=O)O)NC(=O)CNC(=O)[C@H](Cc2c[nH]c3ccccc23)NC(=O)[C@H](CC(=O)O)NC(=O)[C@H](CCC(N)=O)NC(=O)[C@H](Cc2c[nH]c3ccccc23)NC1=O` [Compound 9] (Ac-YCIWQDWGEHRCT-NH2; disulfide 2-12), the IC50 was below 100 nM.

Regarding `CC[C@H](C)[C@@H]1NC(=O)[C@@H](NC(=O)[C@H](Cc2ccc(O)cc2)NC(C)=O)CSSC[C@@H](C(=O)N[C@H](C(=O)N[C@@H](CCC(=O)O)C(=O)N[C@@H](CO)C(=O)NCC(=O)N[C@@H](C)C(N)=O)[C@@H](C)O)NC(=O)[C@H](CCCNC(=N)N)NC(=O)[C@H](Cc2c[nH]cn2)NC(=O)[C@H](CCC(=O)O)NC(=O)CNC(=O)[C@H](Cc2c[nH]c3ccccc23)NC(=O)[C@H](CC(=O)O)NC(=O)[C@H](CCC(N)=O)NC(=O)[C@H](Cc2cn(C)c3ccccc23)NC1=O` [Compound 69] (Ac-YCI[Trp(1-Me)]QDWGEHRCTESGA-NH2; disulfide 2-12), the IC50 is below 100 nM.

`CC[C@H](C)[C@@H]1NC(=O)[C@@H](NC(=O)[C@H](Cc2ccccc2)NC(=O)[C@H](CCC(=O)O)NC(C)=O)CSSC[C@@H](C(=O)N[C@@H](CCC(=O)O)C(=O)NCC(=O)N[C@@H](CCC(=O)O)C(=O)N[C@@H](CCCCNC(=O)CC[C@H](NC(=O)CNC(=O)CC[C@H](NC(=O)CCCCCCCCCCCCCCCCC(=O)O)C(=O)O)C(=O)O)C(N)=O)NC(=O)[C@H](CCCNC(=N)N)NC(=O)[C@H](Cc2c[nH]cn2)NC(=O)[C@H](CCC(=O)O)NC(=O)CNC(=O)[C@H](Cc2c[nH]c3ccccc23)NC(=O)[C@H](CC(=O)O)NC(=O)[C@H](CCC(N)=O)NC(=O)[C@H](Cc2cn(C)c3ccccc23)NC1=O` [Compound 134] (Ac-EFCI[Trp(1-Me)]QDWGEHRCEGEK([γGlu-Gly-γGlu-C18 diacid])-NH2; disulfide 3-13): the IC50 was below 100 nM.

As to `CC[C@H](C)[C@H](NC(=O)[C@H](C)NC(=O)[C@H](CO)NC(=O)CNC(=O)[C@H](CCC(=O)O)NC(C)=O)C(=O)N[C@H]1CSSC[C@@H](C(=O)N[C@H](C(=O)N[C@@H](CCC(=O)O)C(=O)NCC(=O)N[C@@H](CCCCNC(=O)CC[C@H](NC(=O)CCCCCCCCCCCCCCC(=O)O)C(=O)O)C(N)=O)[C@@H](C)O)NC(=O)[C@H](CCCNC(=N)N)NC(=O)[C@H](Cc2c[nH]cn2)NC(=O)[C@H](CCC(=O)O)NC(=O)CNC(=O)[C@H](Cc2c[nH]c3ccccc23)NC(=O)[C@H](CC(=O)O)NC(=O)[C@H](CCC(N)=O)NC(=O)[C@H](Cc2c[nH]c3ccccc23)NC(=O)[C@H]([C@@H](C)CC)NC1=O` [Compound 101] (Ac-EGSAICIWQDWGEHRCTEGK([γGlu-C16 diacid])-NH2; disulfide 6-16), the half-inhibitory concentration (IC50) is below 500 nM.

For the molecule `CC[C@H](C)[C@@H]1NC(=O)[C@@H](NC(=O)[C@H](Cc2ccccc2)NC(=O)[C@H](CCC(=O)O)NC(=O)[C@H](CO)NC(C)=O)CSCC[C@@H](C(=O)N(C)CC(=O)N[C@@H](CCC(=O)O)C(=O)NCCOCCOCC(=O)NCCOCCOCC(=O)N[C@@H](CCCCNC(=O)CC[C@H](NC(=O)CNC(=O)CC[C@H](NC(=O)CCCCCCCCCCCCCCCCC(=O)O)C(=O)O)C(=O)O)C(=O)O)NC(=O)[C@H](CCCNC(=N)N)NC(=O)[C@H](Cc2c[nH]cn2)NC(=O)[C@H](CCC(=O)O)NC(=O)CN(C)C(=O)[C@H](Cc2c[nH]c3ccccc23)NC(=O)[C@H](CC(=O)O)NC(=O)[C@H](CCC(N)=O)NC(=O)[C@H](Cc2cn(C)c3ccccc23)NC1=O` [Compound 162, Ac-SEFA(1)I[1-Me-Trp]QDW[Sar]EHRhC(1)[Sar]E[Peg3][Peg3]-K([17-carboxy-heptadecanoyl][γGlu]G[γGlu])-OH] (Ac-SEFCI[Trp(1-Me)]QDW[Sar]EHR[Abu(4-yl)][Sar]E[AEEA][AEEA]K([γGlu-Gly-γGlu-C18 diacid])-OH; thioether 4-14), the IC50 is below 100 nM.

For `CC[C@H](C)[C@@H]1NC(=O)[C@@H](NC(=O)[C@H](Cc2ccccc2)NC(=O)[C@H](CCC(=O)O)NC(=O)[C@H](CO)NC(C)=O)CSSC[C@@H](C(=O)N[C@H](C(=O)N[C@@H](CCC(=O)O)C(=O)NCC(=O)N[C@@H](CCC(=O)O)C(=O)NCC(=O)NCC(=O)NCC(=O)N[C@@H](CCCCNC(=O)CC[C@H](NC(=O)CNC(=O)CC[C@H](NC(=O)CCCCCCCCCCCCCCCCC(=O)O)C(=O)O)C(=O)O)C(N)=O)[C@@H](C)O)NC(=O)[C@H](CCCNC(=N)N)NC(=O)[C@H](Cc2c[nH]cn2)NC(=O)[C@H](CCC(=O)O)NC(=O)CNC(=O)[C@H](Cc2c[nH]c3ccccc23)NC(=O)[C@H](CC(=O)O)NC(=O)[C@H](CCC(N)=O)NC(=O)[C@H](Cc2cn(C)c3ccccc23)NC1=O` [Compound 130] (Ac-SEFCI[Trp(1-Me)]QDWGEHRCTEGEGGGK([γGlu-Gly-γGlu-C18 diacid])-NH2; disulfide 4-14), the IC50 is below 100 nM.

As to `CC[C@H](C)[C@H](NC(C)=O)C(=O)N[C@H]1CSSC[C@@H](C(=O)N[C@H](C(=O)N[C@@H](CCC(=O)O)C(=O)NCC(=O)N[C@@H](CCCCNC(=O)COCCOCCNC(=O)COCCOCCNC(=O)CC[C@H](NC(=O)CCCCCCCCCCCCCCCCC(=O)O)C(=O)O)C(N)=O)[C@@H](C)O)NC(=O)[C@H](CCCNC(=N)N)NC(=O)[C@H](Cc2c[nH]cn2)NC(=O)[C@H](CCC(=O)O)NC(=O)CNC(=O)[C@H](Cc2c[nH]c3ccccc23)NC(=O)[C@H](CC(=O)O)NC(=O)[C@H](CCC(N)=O)NC(=O)[C@H](Cc2c[nH]c3ccccc23)NC(=O)[C@H]([C@@H](C)CC)NC1=O` [Compound 96] (Ac-ICIWQDWGEHRCTEGK([AEEA-AEEA-γGlu-C18 diacid])-NH2; disulfide 2-12), the IC50 was below 1000 nM.

As to `CC[C@H](C)[C@H](NC(C)=O)C(=O)N[C@H]1CSSC[C@@H](C(=O)N[C@@H](CCC(=O)O)C(N)=O)NC(=O)[C@H](CCCNC(=N)N)NC(=O)[C@H](Cc2c[nH]cn2)NC(=O)[C@H](C)NC(=O)CNC(=O)[C@H](Cc2c[nH]c3ccccc23)NC(=O)[C@H](CC(=O)O)NC(=O)[C@H](CCC(N)=O)NC(=O)[C@H](Cc2c[nH]c3ccccc23)NC(=O)[C@H]([C@@H](C)CC)NC1=O` [Compound 12] (Ac-ICIWQDWGAHRCE-NH2; disulfide 2-12), the IC50 is below 100 nM.

Turning to `CC[C@H](C)[C@@H]1NC(=O)[C@@H](NC(=O)[C@H](Cc2ccccc2)NC(=O)[C@H](CCC(=O)O)NC(=O)[C@H](CO)NC(C)=O)CCSC[C@@H](C(=O)N[C@H](C(=O)N[C@@H](CCC(=O)O)C(=O)NCC(=O)N[C@@H](CCC(=O)O)C(=O)NCCOCCOCC(=O)N[C@@H](CCC(=O)O)C(=O)N[C@@H](CO)C(=O)N[C@@H](CCCCNC(=O)CC[C@H](NC(=O)CCCCCCCCCCCCCCCCC(=O)O)C(=O)O)C(N)=O)[C@@H](C)O)NC(=O)[C@H](CCCNC(=N)N)NC(=O)[C@H](Cc2c[nH]cn2)NC(=O)[C@H](CCC(=O)O)NC(=O)CNC(=O)[C@H](Cc2c[nH]c3ccccc23)NC(=O)[C@H](CC(=O)O)NC(=O)[C@H](CCC(N)=O)NC(=O)[C@H](Cc2cn(C)c3ccccc23)NC1=O` [Compound 165] (Ac-SEF[Abu(4-yl)]I[Trp(1-Me)]QDWGEHRCTEGE[AEEA]ESK([γGlu-C18 diacid])-NH2; thioether 4-14), the IC50 was below 250 nM.

Regarding `CC[C@H](C)[C@H](NC(=O)[C@H](C)NC(=O)[C@H](CO)NC(=O)[C@H](CO)NC(=O)[C@H](CCC(=O)O)NC(=O)CCCCCCCCCCCCCCC(=O)O)C(=O)N[C@H]1CSSC[C@@H](C(=O)N[C@H](C(=O)N[C@@H](CCC(=O)O)C(=O)NCC(=O)N[C@@H](CCC(=O)O)C(N)=O)[C@@H](C)O)NC(=O)[C@H](CCCNC(=N)N)NC(=O)[C@H](Cc2c[nH]cn2)NC(=O)[C@H](CCC(=O)O)NC(=O)CNC(=O)[C@H](Cc2c[nH]c3ccccc23)NC(=O)[C@H](CC(=O)O)NC(=O)[C@H](CCC(N)=O)NC(=O)[C@H](Cc2c[nH]c3ccccc23)NC(=O)[C@H]([C@@H](C)CC)NC1=O` [Compound 99] ({C16 diacid}-ESSAICIWQDWGEHRCTEGE-NH2; disulfide 6-16), the IC50 is below 250 nM.

On to `CC[C@H](C)[C@@H]1NC(=O)[C@@H](NC(=O)CN(C)C(=O)[C@H](CCC(=O)O)NC(=O)[C@H](CO)NC(C)=O)CSSC[C@@H](C(=O)N[C@H](C(=O)N[C@@H](CCC(=O)O)C(=O)N[C@@H](C)C(N)=O)[C@@H](C)O)NC(=O)[C@H](CCCNC(=N)N)NC(=O)[C@H](Cc2c[nH]cn2)NC(=O)[C@H](CCC(=O)O)NC(=O)CN(C)C(=O)[C@H](Cc2c[nH]c3ccccc23)NC(=O)[C@H](CCC(=O)O)NC(=O)[C@H](CCC(N)=O)NC(=O)[C@H](Cc2cn(C)c3ccccc23)NC1=O` [Compound 89, Ac-SE[Sar]C(1)I[1-Me-Trp]QEW[Sar]EHRC(1)TEA-NH2] (Ac-SE[Sar]CI[Trp(1-Me)]QEW[Sar]EHRCTEA-NH2; disulfide 4-14), for which the IC50 was below 100 nM.

Still in this assay, the particulars now being: Table 4; valine 3 versus isoleucine 3 pairs; read-out: CP hemolysis IC50.
With `CC[C@H](C)[C@H](NC(=O)[C@H](C)NC(=O)[C@H](CO)NC(=O)CNC(=O)[C@H](CCC(=O)O)NC(C)=O)C(=O)N[C@H]1CSSC[C@@H](C(=O)N(C)CC(=O)N[C@@H](CCC(=O)O)C(N)=O)NC(=O)[C@H](CCCNC(=N)N)NC(=O)[C@H](Cc2c[nH]cn2)NC(=O)[C@H](CCC(=O)O)NC(=O)CNC(=O)[C@H](Cc2c[nH]c3ccccc23)NC(=O)[C@H](CC(=O)O)NC(=O)[C@H](CCC(N)=O)NC(=O)[C@H](Cc2c[nH]c3ccccc23)NC(=O)[C@H](C(C)C)NC1=O` [H, reference compound] (Ac-EGSAICVWQDWGEHRC[Sar]E-NH2; disulfide 6-16), the IC50 was found to be 330 nM.
